“Also recorded” adds a separate entry of the source. Residues, ends and D or L forms follow the SMILES beside them. *: point of attachment. Cbz = O=C(OCc1ccccc1)*
How the values were obtained:
[1] = test system: Vif-induced degradation of polyubiquitylated APOBEC3G; assay: 293T cells cotransfected with APOBEC3G-HA, His-ubiquitin and Vif, with MG132, anti-HA immunoblot; assay type: cell-based; conditions: MG132 for the final 6 hours of culture
Protocol: To obtain further insight into the mechanism of Vif-induced degradation of APOBEC3G, it was investigated whether APOBEC3G is modified by ubiquitylation. APOBEC3G and His-ubiquitin expression vectors (Treier et al., 1994) were cotransfected into 293T cells in the presence or absence of Vif expression vector. After 48 hours in culture, cellular lysates were prepared. […] Immunoblotting of lysates prepared in the absence of APOBEC3G-HA confirmed that anti-HA antibodies selectively reacted with modified forms of APOBEC3G (FIG. 7C, lane 10). Coexpression of Vif was associated with a complete loss of these polyubiquitylated APOBEC3G species as well as diminished expression of unmodified APOBEC3G (FIG. 7C, lanes 6 and 8). To investigate whether the 26S proteasome mediated Vif-induced degradation of these polyubiquitylated APOBEC3G protein species, parallel experiments were performed in the presence of the proteasome inhibitor, MG132. […] However, it was also observed in multiple experiments that one of the many APOBEC3G degradation products appearing in Vif-expressing cells increased after the addition of MG132 (FIG. 7C, compare lanes 7 and 8). These findings raise the possibility that Vif action may involve multiple pathways including the targeting of select proteolytic fragments of APOBEC3G for degradation by the 26S proteasome.
FIG. 7. HIV-1 Vif induces degradation of APOBEC3G, and polyubiquitylated forms of APOBEC3G form a major target for Vif induced degradation. (A and B) Vif promotes degradation or extensive proteolysis of APOBEC3G as reflected by the loss of both N- and C-terminal immunoreactive epitopes. Graded amounts of expression vector DNA encoding HA-APOBEC3G or APOBEC3G-HA were co-transfected with and without Vif expression vector DNA into 293T cells. Cellular lysates prepared from these cultures were analyzed by immunoblotting with anti-HA antibodies. […] Note that Vif expression induces a loss of anti-HA immunoreactivity regardless of whether the HA epitope is positioned at the N- or C-terminus of APOBEC3G. (C) APOBEC3G is polyubiquitylated and Vif induces degradation of (Ub)n-APOBEC3G apparently by a proteasome-independent mechanism. 293T cells were cotransfected with APOBEC3G-HA and his-ubiquitin expression vectors in the presence or absence of Vif expression vector. 48 hours later, cellular lysates were prepared. As indicated, select cultures were supplemented with the proteasome inhibitor, MG132, for the final 6 hours of culture. Lysates were analyzed by immunoblotting with anti-HA antibodies. […] In addition to the polyubiquitylated forms of APOBEC3G-HA, degradation products of APOBEC3G-HA were apparent both in the presence and absence of Vif expression.

[2] = test system: Vif-mediated depletion of APOBEC3G-HA in 293T cells; assay: Proteasome inhibitor panel in 293T cells transiently transfected with APOBEC3G-HA and Vif, immunoblot; assay type: cell-based; conditions: 12.5 μM, 15 hours
Protocol: 293T cells were transfected with the indicated amounts of expression vector DNA using the calcium phosphate method. Lysis buffers used for immunoblotting were (1) 100-400 mM NaCl, 50 mM Hepes, 0.2% NP40, 0-5 mM EDTA, 0.1 mM PMSF, plus complete protease inhibitor cocktail (Roche)(1 tablet/50 ml buffer) or (2) 50 mM Hepes, pH 7.2, 135 mM NaCl, 1% Triton X-100, 0.5% deoxycholate, 10% glycerol, 1 mM EDTA, 1× protease inhibitor cocktail (Calbiochem). Samples were analyzed using standard SDS-PAGE techniques.
For the proteasome inhibitor experiments in transiently transfected cells, 293T cells were transiently transfected with 0.1 μg of APOBEC3G-HA DNA, 2 μg of control vector DNA and 2 μg of either pcDNA3.1 Vif DNA vector or an additional 2 μg of control vector DNA. Twenty-four hours after transfection, the cells were treated with the indicated inhibitor and harvested 15 hours later. For the proteasome inhibitor experiments using infected H9 cells, H9 cells were infected by spinoculation as described above. Forty-four hours after infection, the cells were treated for 16 hours with either dimethylsulfoxide (DMSO) (0.1%) or 0.25 μM epoxomicin. All of the inhibitors (ALLN, MG132, epoxomicin, Calpain Inhibitor III, and clasto-Lactacystin-β-Lactone) were purchased from CalBiochem and were dissolved in DMSO.
To confirm this finding in a different system, a similar experiment was performed using 293T cells transiently transfected with an APOBEC3G-HA expression vector and either a Vif expression vector or a control vector. Twenty-four hours after transfection the cells were treated with a panel of different proteasome inhibitors for a 15-hour period. It was observed that the broadly acting proteasome inhibitors MG132 (12.5 μM) and ALLN (25 μM) as well as the more specific proteasome inhibitor clasto-Lactacystin-β-Lactone ([…], 20 μM) enhanced the levels of APOBEC3G-HA in the presence of Vif when compared to the diluent control sample (0.1% DMSO) (FIG. 8C, lanes 7 through 12).
FIG. 8A-C. Vif shortens the half-life of APOBEC3G, and proteasome inhibitors partially block the intracellular depletion of APOBEC3G-HA. (A) Pulse-Chase Radiolabeling. HEK 293 cells transiently transfected with APOBEC3G-HA and Vif or control vector DNA were pulse-labeled for 30 min. The initial pulse-labeled (t=0) samples were harvested, and the remaining samples were incubated with chase media for the indicated time points. After immunoprecipitation with anti-HA antibody, the samples were analyzed by SDS-PAGE and the gels were subjected to autoradiography. The relative intensity of the bands were quantified and the Vif (+) and Vif (−) samples were normalized to 1 and graphed (FIG. 8, right side). The T1/2 of APOBEC3G was 1.9 hours in the presence of Vif and 10 hours in the absence of Vif. (B) Proteasome inhibitor studies using infected H9 cells. Mock or HIV-1 wt-infected H9 cells were treated with the broadly active proteasome inhibitor epoxomicin (0.25 μM) or DMSO (0.1%) 44 hours after infection. Sixteen hours following treatment, the cells were harvested; and whole cell lysates were prepared by boiling the cells in Laemmli lysis buffer. Note that Epoxomicin caused an increase in endogenous APOBEC3G levels in the infected sample (compare lane 2 with lane 1). (C) Proteasome inhibitor studies using transiently-transfected 293T cells. Twenty-four hours following transfection of 293T cells with 0.1 μg APOBEC3G and 2 μg Vif or control vector DNA, the cells were treated with the indicated concentration of inhibitor for 15 hours. APOBEC3G-HA levels were elevated in the presence of the proteasome inhibitors MG132, ALLN, and clasto-lactacystin-β-lactone (lanes 8-11), but not in the presence of calpain inhibitor III (lane 12).

CC(C)C[C@@H](C=O)NC(=O)[C@H](CC(C)C)NC(=O)[C@H](CC(C)C)NC(=O)OCc1ccccc1 [MG132] (Cbz-Leu-Leu-Leu-aldehyde)
Vif-dependent disappearance of polyubiquitylated APOBEC3G [1]: did not block; also recorded: not blocked
accumulation of polyubiquitylated proteins within the cells [1]: increased accumulation
levels of unmodified APOBEC3G in the presence of Vif [1]: did not block the Vif-dependent disappearance of polyubiquitylated APOBEC3G or increase levels of the unmodified protein
one of the APOBEC3G degradation products in Vif-expressing cells [1]: increased in quantity
levels of APOBEC3G-HA in the presence of Vif compared to diluent control (0.1% DMSO) [2]: enhanced; also recorded: elevated
